Reference: patent publication US10787426B2, “Method of treating autism spectrum disorders using piperazine-1-carboxamidine or pharmaceutically acceptable salt thereof” (NEUROVENTI, priority 2016, dated 2020)

How the values were obtained:
Assay type in all cases: in vivo, Sprague-Dawley (SD) rats
[1] = tested on: valproic acid-induced autism rat models; test: Repetitive behavior test (grooming time); conditions: 12.5 mg/kg or more, intraperitoneal once a day; grooming time over 10 minutes; compared to autism-induced solvent control; FIG. 3
Method: (§1) In particular, valproic acid was subcutaneously injected into female adult Sprague-Dawley (SD) rats on day 12 of gestation, at a dose of 450 mg/kg and in an administration amount of 10 ml/kg, and then the SD rats gave birth to babies. When the born babies were 21 days old, they were grouped according to body weight and selected as autism rat models. As a group administered a solvent, on day 12 of gestation, female adult SD rats were administered a saline solution instead of valproic acid, at the same dose and in the same administration amount.
The autism rat models prepared according to Example <1-1> were intraperitoneally administered piperazine-1-carboxamidine 24 days after birth once a day at a predetermined time. […]
To confirm an autism therapeutic effect of piperazine-1-carboxamidine in valproic acid-induced autism rat models based on these findings, a grooming level enhancement effect was evaluated in the autism rat models.
In particular, the autism rat models of Example <1-2>, which were administered piperazine-1-carboxamidine and aged between 33 days and 38 days, were placed in a cage (42 cm×29 cm×19 cm) without straw litter and adapted thereto for 10 minutes. Thereafter, the grooming time of the autism rat models was measured for 10 minutes to confirm the degree of repetitive behavior. […]

[2] = tested on: valproic acid-induced autism rat models; test: Social preference test (familiar side vs novel side); conditions: 12.5 mg/kg or 25 mg/kg, intraperitoneal once a day, FIG. 2B
Method: as §1
(§2) The autism rat models prepared according to Example <1-1> were intraperitoneally administered piperazine-1-carboxamidine 24 days after birth once a day at a predetermined time. At this time, piperazine-1-carboxamidine was administered at a dose of […], 12.5 mg/kg, 25 mg/kg, or 50 mg/kg, and in an amount of 10 ml/kg. The administration process was repeated until all the experiments were completed, and was performed 30 minutes before experiments, in the case of behavioral experiments.
To further verify an effect of piperazine-1-carboxamidine on treating autism spectrum disorder in valproic acid-induced autism rat models, an experiment for confirming social preference was carried out.
In particular, after social interest was confirmed in Example <2-1>, another identical type of rat were placed in the empty cage at one end of the box structure, and a social interaction experiment for the autism rat models as experimental groups was conducted for 10 minutes. The cage in which rat were placed in Example <2-1> was regarded as a familiar side, the cage in which new rat were placed was regarded as a novel side, and the degree of interest expressed by the autism rat models as experimental groups was confirmed using the EthoVision system by measuring residence time for each case. A significance test was performed using two-way ANOVA, followed by a Bonferroni's post hoc test.

[3] = tested on: valproic acid-induced autism rat models; test: Social interaction test (three-compartment box, stranger vs empty cage); conditions: 6.25 mg/kg or more, intraperitoneal once a day, 10 minutes test, compared to solvent control (VPA), FIG. 2A
Method: as §1, §2
To verify an effect of piperazine-1-carboxamidine on treating autism spectrum disorder in valproic acid-induced autism rat models, changes in social interaction according to whether piperazine-1-carboxamidine was administered or not were examined (Crawley, Jacqueline N. Mental retardation and developmental disabilities research reviews 10.4 (2004): 248-258). […]

[4] = tested on: valproic acid-induced autism rat models; test: Electroshock-induced seizure threshold (CC50); conditions: 25 mg/kg, intraperitoneal once a day; Litchfield-Wilcoxon method; versus valproic acid-exposed solvent control; FIG. 5
Method: as §1, §2
To confirm an effect of piperazine-1-carboxamidine on treating autism spectrum disorder in autism rat models, electroshock-induced seizure susceptibility was evaluated in autism rat models (Park, Hyung Geun, et al. European journal of pharmacology 574.2, 2007: 112-119; Browning, R. A., et al. Epilepsy research 6.1, 1990: 1-11). […]

[5] = tested on: valproic acid-induced autism rat models; test: Open field test (hyperactivity and impulsive behavior); conditions: 25 or 50 mg/kg, intraperitoneal once a day, open field 10 minutes
Method: as §1, §2
To confirm an effect of piperazine-1-carboxamidine on treating autism spectrum disorder in autism rat models, general locomotor activity of the autism rat models was evaluated by an open field test for assaying enhancement and deterioration of motor functions, sedation, excitement, anxiety, depression, the degree of avoidance, and toxicity. […]

[6] = 10 minutes test, versus autism-induced solvent control

Structure (SMILES): N=C(N)N1CCNCC1 [piperazine-1-carboxamidine]
- degree of grooming (grooming time, repetitive behavior) [1]: decreased
- level of interest in the familiar side, residence time [2, 6]: decreased
- level of interest in the novel side, residence time [2, 6]: increased
- social preference patterns ([2]; relative to normal controls): restored to levels similar to those of the normal controls
- degree of interest in new rat (strangers), residence time ([3]; 30 minutes before test): significantly increased
- degree of interest in the new empty side, residence time [3]: decreased
- CC50 (convulsive current 50, electroshock-induced seizure threshold) [4]: significantly increased
- emotional disturbance-related movement in the central region (ratio of moving distance in central region to total) ([5]; FIG. 4B): reduced to levels of the normal controls
- degree of hyperactivity (total moving distance) ([5]; versus autism-induced solvent control, FIG. 4A): significantly decreased
